Experimental findings from patent US11952328B2, “Selective ship inhibitors for treating disease” (THE RESEARCH FOUNDATION FOR THE STATE UNIVERSITY OF NEW YORK, priority 2018, dated 2024) are described below.

This experiment deals with RMA-Rael cells. Put plainly: Overall survival of RMA-Rael tumor challenged hosts (Kaplan-Meier). The experiment is classed as in vivo, mice. The method, then: FIGS. 6A-6I show the survival of tumor bearing mice treated with a SHIP inhibitor. […] Hosts were treated on the day of tumor challenge and the following day as in FIG. 1. The 2-day treatment course was repeated each week for the duration of survival. […] Mice received either NK cell depleting, anti-NK1.1 antibody (PK136), or isotype control antibody prior to tumor challenge (5×10^5 RMA-Rael). The hosts received SHIP inhibitor two consecutive days each week until death. […] The hosts were treated on the day of tumor challenge and the following day as in FIG. 1. The 2-day treatment course was repeated each week for the duration of survival.
The most clinically relevant endpoint in any cancer therapy study is not a measured decrease in tumor burden, but instead, a significant increase in survival promoted by the treatment.
In order to further define 3AC′s capacity to control malignancy through immunomodulatory effects the capacity of 3AC to promote resistance of NSG, TcRa^−/− and NK cell depleted hosts to RMA-Rael tumor challenge was examined. As before, mice received treatment with 3AC or vehicle for two consecutive days each week followed by a five-day cessation of treatment to prevent disarming and/or exhaustion. This treatment strategy was continued indefinitely and survival was monitored (FIG. 6A). To confirm that, in addition to the chemotherapeutic effect documented in FIG. 5, 3AC-induced enhanced-NK and -T cell activity is important for the survival benefit following tumor challenge, NSG mice (mice deficient of all lymphocyte lineages) were challenged.
To determine if T cells are required for the 3AC-mediated survival benefit, the same expirement using TcRa^−/− hosts that lack a TcR-ab^+ T cell compartment was repeated. […] To directly test the requirement for an intact NK cell compartment for 3AC-mediated increased survival after tumor challenge, the experiment as described in FIG. 6A were repeated challenging C57BL/6 hosts that were first depleted of
NK cells. Here, prior to tumor challenge, hosts were injected with either NK cell depleting anti-NK1.1 antibody (C57BL/6-DNK) or with antibody isotype control (C57BL/6-iso) (FIG. 6B).
The SHIP1 inhibitor 3AC was then tested in a genetic model in which the molecular target, SHIP1, was absent in a key target population of T cells, which are required for protection in the RMA-Rael lymphoma challenge model. […] Thus, SHIP inhibitor protection after tumor challenge is lost when the T cell compartment lacks the molecular target (SHIP1) in T cells.
There are two paralogs of SHIP: SHIP1 which is expressed in a limited range of tissues including hematopoietic cells, and SHIP2 which is expressed by a wide array of cell types. To determine if SHIP2 may also play a role in host defense against malignancy as described above tumor bearing mice were treated with small-molecule inhibitors against SHIP2 as well. […] Stem Cells. (2015); 33: 848-858; Hoekstra, E. et al., Lipid phosphatase SHIP2 functions as oncogene in colorectal cancer by regulating PKB activation. Oncotarget. (2016) 7: 73525-73540). Like 3AC, pan-SHIP1/2 inhibitors such as K118 are also cytotoxic for RMA-Rael cells in vitro. The pan SHIP1/2 inhibitory compounds K118 and K149 were compared to the SHIP1 selective compound 3AC.
Simultaneous inhibition of both SHIP1and SHIP2 may be deleterious to the immune response promoted by 3AC. […] In the study, the SHIP1 selective inhibitor 3AC that provides for protection after RMA-Rael challenge was simulataneously co-administered.

Regarding `CC(C)CCC[C@@H](C)[C@H]1CC[C@H]2[C@@H]3CCC4C[C@H](N)CC[C@]4(C)[C@H]3CC[C@]12C` (stereo partly drawn) [Compound 3AC, 3-α-aminocholestane], the overall survival entry (3AC-treated NK cell depleted C57BL/6 (anti-NK1.1) vs 3AC-treated isotype control hosts) is “significantly compromised survival”; the overall survival entry (C57BL/6 hosts, 5×10^5 RMA-Rael, two consecutive days each week, five-day cessation, vs vehicle) is recorded as “significantly increased survival”; the overall survival entry (CD4CreSHIP flox/flox mice treated with 3AC vs vehicle-treated SHIP+/flox mice) is listed as “comparable survival”; the overall survival entry (SHIP flox/flox mice treated with 3AC vs 3AC-treated CD4CreSHIP flox/flox and vehicle-treated SHIP+/flox) was “enhanced survival”; the overall survival entry (TcRa−/− hosts, pulsatile dosing, compared to 3AC treatment of C57BL/6 hosts) is reported as “did not prolong survival”. Further, under “C57BL/6 hosts, 1×10^5 RMA-Rael, FIG. 6H”, the long-term survival result is given as “long-term survival in a subset of hosts”. In addition, the “overall survival (protection)” value (C57BL/6 hosts, 1×10^5 RMA-Rael, FIG. 6H, vs vehicle) was “extended survival”. Further, where the note is “NSG mice, pulsatile dosing, vs vehicle-treated NSG”, the median survival result was “very modest increase”. The long term survival entry (subpopulation of 3AC treated C57BL/6 mice, pulsatile dosing, tumor uniformly lethal in vehicle mice) is given as “durable, long term survival without any evidence of tumor burden”.
